SMILES strings stand for the structures. Counter-ions that a name gives are not always drawn. Like-named read-outs stand apart in the source and are kept apart here.

One series addresses LSD1 (Homo sapiens (Human), UniProt O60341). The series is described as follows: LSD1 enzyme activity detection (HTRF). Conditions: read-out: Inhibition of enzymatic activity of LSD1 IC50. In kind it is biochemical.
The next series deals with NCI-H1417 cells. As to the kind of experiment: In vitro cell proliferation detection (CellTiter-Glo, 7 days). In kind it is cell-based. Conditions: Homo sapiens, 168 h; NCI-H1417 cells, 7 days, CellTiter-Glo; read-out: NCI-H1417 proliferation inhibition IC50.
The target of series [1] is voltage-gated potassium ion channel hERG (Homo sapiens (Human), UniProt Q12809). The series is described as follows: hERG inhibition test (manual patch-clamp).
voltage-gated potassium ion channel hERG, sequence (Q12809 whole entry): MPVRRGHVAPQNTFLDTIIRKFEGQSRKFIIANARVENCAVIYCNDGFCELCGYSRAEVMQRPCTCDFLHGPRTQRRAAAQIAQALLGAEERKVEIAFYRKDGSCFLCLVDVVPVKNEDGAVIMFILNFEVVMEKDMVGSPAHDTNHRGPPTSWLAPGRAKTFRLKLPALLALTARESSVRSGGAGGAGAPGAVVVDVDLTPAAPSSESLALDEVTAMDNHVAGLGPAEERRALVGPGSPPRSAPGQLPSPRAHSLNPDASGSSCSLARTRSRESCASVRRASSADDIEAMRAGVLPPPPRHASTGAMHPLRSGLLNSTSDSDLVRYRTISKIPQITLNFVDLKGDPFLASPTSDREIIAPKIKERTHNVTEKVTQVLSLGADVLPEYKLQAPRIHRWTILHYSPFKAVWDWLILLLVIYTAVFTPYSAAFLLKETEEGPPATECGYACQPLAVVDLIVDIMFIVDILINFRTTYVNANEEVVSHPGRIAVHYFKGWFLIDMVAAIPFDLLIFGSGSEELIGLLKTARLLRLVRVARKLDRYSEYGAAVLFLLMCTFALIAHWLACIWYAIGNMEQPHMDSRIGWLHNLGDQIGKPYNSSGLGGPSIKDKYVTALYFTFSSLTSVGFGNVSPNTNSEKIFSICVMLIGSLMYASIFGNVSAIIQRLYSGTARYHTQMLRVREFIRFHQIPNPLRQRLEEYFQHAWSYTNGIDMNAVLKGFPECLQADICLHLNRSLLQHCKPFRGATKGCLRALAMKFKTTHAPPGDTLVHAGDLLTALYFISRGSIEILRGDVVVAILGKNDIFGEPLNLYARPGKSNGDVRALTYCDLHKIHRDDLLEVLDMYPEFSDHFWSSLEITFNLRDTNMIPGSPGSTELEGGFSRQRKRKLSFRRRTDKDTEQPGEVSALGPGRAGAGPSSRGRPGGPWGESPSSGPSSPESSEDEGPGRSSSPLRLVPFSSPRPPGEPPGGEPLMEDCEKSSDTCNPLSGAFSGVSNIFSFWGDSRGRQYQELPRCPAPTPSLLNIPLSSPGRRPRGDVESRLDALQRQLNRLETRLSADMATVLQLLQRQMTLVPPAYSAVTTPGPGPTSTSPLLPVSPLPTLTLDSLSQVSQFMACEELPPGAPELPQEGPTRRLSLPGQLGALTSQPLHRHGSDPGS
[2] abbreviates: read-out: hERG IC50, manual patch-clamp.
Throughout, for Cmax: test concentration or dose not given here.

`COc1cc(N2CCC(N)CC2)nc(-c2ccc(C#N)c(F)c2)c1-c1cc(O)c(F)c(F)c1` [Example 92, 4-(6-(4-aminopiperidin-1-yl)-3-(3,4-difluoro-5-hydroxyphenyl)-4-methoxypyridin-2-yl)-2-fluorobenzonitrile]: the IC50 at LSD1 (HTRF, H3K4me1 substrate) was found to be 8.2 ± 0.1 nM; with NCI-H1417 cells, 8.78 nM; in series [1] (setting [2]) it was 10900 nM.
For the compound `COc1ccc(-c2c(OC)cc(N3CCC(N)CC3)nc2-c2ccc(C#N)c(F)c2)cc1O` [Example 89, 4-(6-(4-aminopiperidin-1-yl)-3-(3-hydroxy-4-methoxyphenyl)-4-methoxypyridin-2-yl)-2-fluorobenzonitrile], the IC50 was 0.46 ± 0.11 nM at LSD1 (HTRF, H3K4me1 substrate); 1 nM in the series on NCI-H1417 cells; 13800 nM in series [1] (setting [2]). For the same compound, in “Rat PK test (IV and PO)” (Male SD rats), the Cl was determined as 58.3 mL/min/kg. For the same compound, the F in the series “Rat PK test (IV and PO)” (Male SD rats, PO vs IV) is on record as 13.1%. Also, the area under the curve AUC(0-inf) in “Rat PK test (IV and PO)” (male, SD, rat, plasma) amounted to 208 ng·h/mL. The compound also came in with a Cmax in the series “Rat PK test (IV and PO)” (male, SD, rat, plasma) of 22.5 ng/mL. The compound further showed a half-life in the series “Rat PK test (IV and PO)” (male, SD, rat, plasma) of 6.26 h. The compound also showed a Vd in the series “Rat PK test (IV and PO)” (male, SD, rat, plasma, intravenous) of 13 L/kg.
As to `COc1ccc(-c2c(-c3ccc(C#N)c(F)c3)nc(N3CCC(N)CC3)n3ccnc23)cc1F` [Example 117, 4-(5-(4-aminopiperidin-1-yl)-8-(3-fluoro-4-methoxyphenyl)imidazolo[1,2-c]pyrimidin-7-yl]-2-fl uorobenzonitrile hydrochloride], the results for the IC50 (at LSD1; with NCI-H1417 cells; in series [1] (setting [2])) were 0.46 ± 0.02 nM, 3.76 nM and 7190 nM, respectively.
With `Cc1ccc(-c2c(-c3ccc(C#N)c(F)c3)nc(N3CCC(N)CC3)n3ccnc23)cc1O` [Example 136, 4-(5-(4-aminopiperidin-1-yl)-8-(3-hydroxy-4-methylphenyl)imidazolo[1,2-c]pyrimidin-7-yl)-2-fluorobenzonitrile hydrochloride], the IC50 at LSD1 (HTRF, H3K4me1 substrate) is 0.06 ± 0.02 nM; in the series on NCI-H1417 cells, 0.176 nM; in series [1] (setting [2]) it was over 30000 nM.
For `COc1ccc(-c2c(-c3ccc(C#N)c(F)c3)nc(N3CCC(N)CC3)n3ccnc23)cc1C#N` [Example 135, 4-(5-(4-aminopiperidin-1-yl)-8-(3-cyano-4-methoxyphenyl)imidazolo[1,2-c]pyrimidin-7-yl)-2-fluorobenzonitrile] the same measures were 9.6 ± 2.7 nM, 8.19 nM and 23400 nM.
The matching figures for `CC(C)(O)Cc1ccc(-c2c(-c3ccc(C#N)c(F)c3)nc(N3CCC(N)CC3)n3ccnc23)cc1F` [Example 134, 4-(5-(4-aminopiperidin-1-yl)-8-(3-fluoro-4-(2-hydroxy-2-methylpropyl)phenyl)imidazolo [1,2-c]pyrimidin-7-yl)-2-fluorobenzonitrile]: 6.1 ± 1.9 nM, 7.25 nM and 18400 nM.
Turning to `COc1ccc(-c2c(OC(C)C)cc(N3CCC(N)CC3)nc2-c2ccc(C#N)c(F)c2)cc1O` [Example 104, 4-(6-(4-aminopiperidin-1-yl)-3-(3-hydroxy-4-methoxyphenyl)-4-isopropoxypyridin-2-yl)-2-fluor obenzonitrile], the IC50 on LSD1 (HTRF, H3K4me1 substrate) is 0.7 ± 0.02 nM; in the series on NCI-H1417 cells it was 1.76 nM; in series [1], 6700 nM.
Turning to `COc1ccc(-c2c(O)cc(N3CCC(C)(N)CC3)nc2-c2ccc(C#N)c(F)c2)cc1F` [Example 50], the IC50 came out at 7 ± 2.1 nM on LSD1 (HTRF, H3K4me1 substrate); 33.2 nM in the series with NCI-H1417 cells; 17600 nM in series [1] (setting [2]).
The matching figures for `N#Cc1ccc(-c2nc(N3CCC(N)CC3)n3ccnc3c2-c2ccc(OC(F)(F)F)c(O)c2)cc1F` [Example 133, 4-(5-(4-aminopiperidin-1-yl)-8-(3-hydroxy-4-(trifluoromethoxy)phenyl)imidazolo [1,2-c]pyrimidin-7-yl)-2-fluorobenzonitrile hydrochloride]: 0.54 ± 0.32 nM, 1.04 nM and 7170 nM.
For `N#Cc1ccc(-c2nc(N3CCC(N)CC3)n3ccnc3c2-c2ccc(F)c(O)c2)cc1F` [Example 137, 4-(5-(4-aminopiperidin-1-yl)-8-(4-fluoro-3-hydroxyphenyl)imidazolo[1,2-c]pyrimidin-7-yl]-2-fluorobenzonitrile] the same measures were 0.07 ± 0.05 nM, 0.553 nM and over 10000 nM.
On to `COc1ccc(-c2c(OC3CCCC3)cc(N3CCC(N)CC3)nc2-c2ccc(C#N)c(F)c2)cc1O` [Example 105, 4-(6-(4-aminopiperidin-1-yl)-4-(cyclopentyloxy)-3-(3-hydroxy-4-methoxyphenyl)pyridin-2-yl)-2-fluorobenzonitrile], for which the IC50 at LSD1 (HTRF, H3K4me1 substrate) was 2.3 ± 0.04 nM; with NCI-H1417 cells, 5.45 nM; in series [1] (setting [2]) it was 5600 nM.
With `COc1cc(N2CCC(N)CC2)nc(-c2ccc(C#N)c(F)c2)c1-c1ccc(C)c(O)c1` [Example 95, 4-(6-(4-aminopiperidin-1-yl)-3-(3-hydroxy-4-methylphenyl)-4-methoxypyridin-2-yl)-2-fluorobenzonitrile hydrochloride], the IC50 on LSD1 (HTRF, H3K4me1 substrate) amounted to 0.16 ± 0.11 nM; in the series with NCI-H1417 cells, 0.467 nM; in series [1] (setting [2]) it was 6920 nM.
The matching figures for `Cc1noc2cc(-c3c(O)cc(N4CCC(N)CC4)nc3-c3ccc(C#N)c(F)c3)c(F)cc12` [Example 26, 4-(6-(4-aminopiperidin-1-yl)-3-(5-fluoro-3-methylbenzo[d]isoxazol-6-yl)-4-hydroxypyridin-2-yl)-2-fluorobenzonitrile]: 3.67 ± 0.72 nM, 7.45 nM and over 30000 nM.
The matching figures for `COc1cc(N2CCC(N)CC2)nc(-c2ccc(C#N)c(F)c2)c1-c1cc2onc(C)c2cc1F` [Example 90, 4-(6-(4-aminopiperidin-1-yl)-3-(5-fluoro-3-methylbenzo[d]isoxazol-6-yl)-4-methoxypyridin-2-yl)-2-fluorobenzonitrile]: 7.48 nM, 5.34 nM and 4620 nM.
For `CC(C)(O)Cc1ccc(-c2c(-c3ccc(C#N)c(F)c3)nc(N3CCC(N)CC3)n3ccnc23)c(F)c1` [Example 132, 4-(5-(4-aminopiperidin-1-yl)-8-(2-fluoro-4-(2-hydroxy-2-methylpropyl)phenyl)imidazolo[1,2-c]pyrimidin-7-yl)-2-fluorobenzonitrile hydrochloride] the same measures were 5.62 nM, 11.9 nM and over 30000 nM.
Take `COc1cc(F)c(-c2c(O)cc(N3CCC(N)CC3)nc2-c2ccc(C#N)c(F)c2)cc1F` [Example 41, 4-(6-(4-aminopiperidin-1-yl)-3-(2,5-difluoro-4-methoxyphenyl)-4-hydroxypyridin-2-yl)-2-fluorobenzonitrile hydrochloride]: the IC50 is 22.1 nM on LSD1 (HTRF, H3K4me1 substrate); 7.93 nM with NCI-H1417 cells; over 30000 nM in series [1] (setting [2]).
With `O=C(c1cc(CN[C@@H]2C[C@H]2c2ccc(F)cc2)nc(-c2ccc(-n3cccn3)cc2)n1)N1CCC(F)(F)CC1` [Example 230], the IC50 amounted to 47.9 nM at LSD1 (HTRF, H3K4me1 substrate); 3.92 nM in the series with NCI-H1417 cells; 4990 nM in series [1] (setting [2]).
The matching figures for `CS(=O)(=O)N1CCN(C(=O)c2cc(CN[C@@H]3C[C@H]3c3ccc(F)cc3)nc(-c3ccc(-n4ccnn4)cc3)n2)CC1` [Example 228]: 22.9 nM, 4.68 nM and 7210 nM.

For the origin of these results see patent US20240216357A1 (SICHUAN HUIYU PHARMACEUTICAL CO., LTD., priority 2021, published 2024).
